According to publication PMC4516916, “Development of Plate Reader and On-Line Microfluidic Screening to Identify Ligands of the 5-Hydroxytryptamine Binding Protein in Venoms” (Toxins, 2015):
Where a name gives a salt, the structure may show the parent alone.

How the values were obtained:
A1B2D1R 5HTBP mutant [1] = molecular target: T1, A1B2D1R 5HTBP mutant (Aplysia californica, UniProt Q8WSF8); experiment: Fluorescence enhancement microplate reader assay (DAHBA tracer); format: binding
Procedure: Next, specific and non-specific binding was determined by measuring a tracer saturation curve with and without a displacing ligand. In this experiment, the binding protein concentration was 50 nM while 100 µM granisetron was used as displacing ligand for measurement of the non-specific binding curve. […] The non-specific binding, the total binding curve and the resulting specific binding curve is shown (Figure 2C).
Fourteen 5-HT3R ligands, also binding to the 5HTBP [10], were selected for this experiment. The measured Ki values for both the fluorescence enhancement plate reader assay as well as those measured with the radioligand binding assay are listed (Supplementary Information Table S1).
The buffer used for development of the 5HTBP fluorescence enhancement assay consisted of 1 mM KH2PO4, 3 mM Na2HPO4, […], 20 mM trizma base/HCl at pH 7.5 with addition of 400 μg/mL ELISA BR [21]. The fluorescence enhancement was measured with a Victor3 Microplate reader from Perkin-Elmer. The excitation and emission wavelengths were set to 485 and 520 nm, respectively. Black-bottomed 96-well microplates were purchased from Greiner Bio-One (Alphen aan den Rijn, The Netherlands). The final assay volume was 100 µL per well. The 5HTBP was first mixed with the ligands, and then with the tracer ligand. The assay mixture was incubated for 5 min before the measurement. The pharmacological validation was performed by measurement of IC50 curves of twelve 5-HT3R ligands and comparing the results obtained with the results obtained from a radioligand binding assay (see below). The z’ factors for the determination of assay quality were calculated according to Zhang.

A1B2D1R 5HTBP mutant [2] = molecular target: T1, A1B2D1R 5HTBP mutant; experiment: Radioligand binding assay with [3H]-granisetron (SPA)
Procedure: The competitive radioligand-binding assay was performed as described by Kesters et al. 2013 [10]. His-tagged A1B2D1R 5HTBP was diluted in buffer (10 mM HEPES/0.05% Tween) to obtain 50 ng binding protein per well. […] The concentration of the radioligand [3H]-granisetron (Perkin-Elmer, Life Science, Groningen, The Netherlands, specific activity ~85 Ci/mmol) was 1.99 nM. After addition of PVT Copper His-Tag SPA beads (final concentration 2 mg/mL), the final well volume was 100 µL. The plates (white Optiplates, Perkin-Elmer Life Science, Groningen, The Netherlands) were incubated at room temperature under continuous shaking while protected from light for 1.5 h. The SPA beads were then allowed to settle for 3 h in the absence of light before counting in a Wallac 1450 MicroBeta (Perkin-Elmer Life Science, Groningen, The Netherlands). All radioligand binding data were fit by a non-linear, least squares curve analysis procedure using Graphpad Prism (version 5, GraphPad Software).

A1B2D1R 5HTBP = experiment: Fluorescence enhancement of anabaseine derivatives with 5HTBP (cuvette fluorometer); format: binding, Aplysia californica; details: fluorescence in presence of 5HTBP divided by fluorescence in absence of 5HTBP; A1B2D1R variant; excitation 488 nm
Procedure: (§1) We first evaluated three potentially suitable tracer ligands. […] Fluorescence enhancement factors are defined as fluorescence in presence of 5HTBP divided by fluorescence in absence of 5HTBP. […] DAHBA was therefore selected as the most suitable tracer ligand.
(§2) The fluorescence enhancement properties of three anabaseine derivatives (Supplementary Information Figure S3) bound to the orthosteric binding pocket of two different 5HTBP variants were measured using 1 cm wide glass cuvettes in a Perkin-Elmer LS50B fluorometer (Groningen, The Netherlands). The excitation spectra, λmax (nm), and ε (L·mol^−^1·cm^−^1) values of the anabaseine derivatives are described by Kool et al.. The emission spectra from 500–595 nm were recorded with 0.5 nm intervals with a fixed 488 nm excitation.

A1B2D1W 5HTBP = experiment: as above; format: binding, Aplysia californica; details: fluorescence in presence of 5HTBP divided by fluorescence in absence of 5HTBP; A1B2D1W variant; excitation 488 nm
Procedure: as §1, §2

[3] = Stability of tracer ligand in solution (MS analysis); format: physicochemical; details: deduced by MS analysis
Excerpt: as §1

[4] = read-out: Ki fluorescence enhancement (A1B2D1R 5HTBP mutant), plate reader assay
[5] = read-out: Ki RLB (A1B2D1R 5HTBP mutant); [3H]-granisetron 1.99 nM
[6] = plate reader assay, read-out: Ki fluorescence enhancement (A1B2D1R 5HTBP mutant)
[7] = [3H]-granisetron 1.99 nM; read-out: Ki RLB (A1B2D1R 5HTBP mutant)

T1 sequence (Q8WSF8 entry or part of it, change not shown): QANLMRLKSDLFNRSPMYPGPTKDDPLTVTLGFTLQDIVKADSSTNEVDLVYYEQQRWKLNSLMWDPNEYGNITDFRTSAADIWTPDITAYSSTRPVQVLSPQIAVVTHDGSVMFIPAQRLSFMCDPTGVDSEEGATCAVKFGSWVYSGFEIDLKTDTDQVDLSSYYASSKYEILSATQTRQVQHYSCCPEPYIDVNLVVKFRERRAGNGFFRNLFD

## NCCc1c[nH]c2ccc(F)cc12 [5-fluorotryptamine HCL]
A1B2D1R 5HTBP mutant [1]; [4]
  Ki: 110 ± 14 µM
A1B2D1R 5HTBP mutant [2]; [5]
  Ki: 101 ± 50.2 µM

## C=CCN1CCc2nc(N)sc2CC1 [B-HT920]
A1B2D1R 5HTBP mutant [1]; [6]
  Ki: 3.85 ± 0.76 µM
A1B2D1R 5HTBP mutant [2]; [7]
  Ki: 0.93 ± 0.24 µM

## CCN(CC)c1ccc(/C=C2\CCCN=C2c2cccnc2)c(O)c1 [DAHBA, (E)-3-(3-(4-diethylamino-2-hydroxybenzylidene)-3,4,5,6-tetrahydropyridin-2-yl)pyridine]
A1B2D1R 5HTBP
  fluorescence enhancement factor: 4.7

## Cn1cc(C(=O)C(=O)NC2CN3CCC2CC3)c2ccccc21 (stereo not drawn) [RS56812]
A1B2D1R 5HTBP mutant [1]; [6]
  Ki: 3.57 ± 0.91 µM
A1B2D1R 5HTBP mutant [2]; [7]
  Ki: 1.6 ± 0.34 µM

## NC1CCN(c2cccc(Cl)n2)CC1 [SR57227]
A1B2D1R 5HTBP mutant [1]; [6]
  Ki: 85 ± 7.62 µM
A1B2D1R 5HTBP mutant [2]; [7]
  Ki: 39.7 ± 15 µM

## CN1CCN(c2nc3ccccc3nc2Cl)CC1 [VUF10166]
A1B2D1R 5HTBP mutant [1]; [6]
  Ki: 11.5 ± 3.58 µM
A1B2D1R 5HTBP mutant [2]; [7]
  Ki: 2.39 ± 0.58 µM

## CN(C)c1ccc(/C=C2\CCCN=C2c2cccnc2)cc1 [VUF10907, (E)-3-(3-(4-Dimethylaminobenzylidene)-3,4,5,6-tetrahydropyridin-2-yl)pyridine]
A1B2D1R 5HTBP
  fluorescence enhancement factor: 3.8
A1B2D1W 5HTBP
  fluorescence enhancement factor: 2.5

## CN1CCc2cc(/C=C3\CCCN=C3c3cccnc3)ccc21 [VUF11234, (E)-1-methyl-5-((2-(pyridin-3-yl)-5,6-dihydropyridin-3(4H)-ylidene)methyl)indoline]
A1B2D1R 5HTBP
  fluorescence enhancement factor: 6.5
A1B2D1W 5HTBP
  fluorescence enhancement factor: 3.7
[3]
  degradation in solution: notable degradation in solution

## CN1C2CCCC1CC(NC(=O)c1nn(C)c3ccccc13)C2 (stereo not drawn) [granisetron, Granisetron]
A1B2D1R 5HTBP mutant [1]; [4]
  Ki: 0.24 ± 0.14 µM
A1B2D1R 5HTBP mutant [2]; [5]
  Ki: 0.05 ± 0.01 µM

## CN1CCN2c3ncccc3Cc3ccccc3C2C1 (stereo not drawn) [mirtazapine]
A1B2D1R 5HTBP mutant [1]; [4]
  Ki: 12.8 ± 3.99 µM
A1B2D1R 5HTBP mutant [2]; [5]
  Ki: 9.29 ± 1.87 µM

## O=C1c2cccc3c2[C@H](CCC3)CN1[C@@H]1CN2CCC1CC2 [palonosetron]
A1B2D1R 5HTBP mutant [1]; [4]
  Ki: 2.2 ± 0.63 µM
A1B2D1R 5HTBP mutant [2]; [5]
  Ki: 0.51 ± 0.11 µM

## c1ccc2nc(N3CCNCC3)ccc2c1 [quipazine]
A1B2D1R 5HTBP mutant [1]; [4]
  Ki: 73 ± 32.2 µM
A1B2D1R 5HTBP mutant [2]; [5]
  Ki: 53.8 ± 13.7 µM

## CN1[C@@H]2CC[C@H]1C[C@@H](OC(=O)c1c[nH]c3ccccc13)C2 [tropisetron]
A1B2D1R 5HTBP mutant [1]; [4]
  Ki: 0.04 µM
A1B2D1R 5HTBP mutant [2]; [5]
  Ki: 0.01 µM

## COc1cc(N)c(Cl)cc1C(=O)NC1CN2CCC1CC2 (stereo not drawn) [zacopride]
A1B2D1R 5HTBP mutant [1]; [4]
  Ki: 4.05 ± 1.14 µM
A1B2D1R 5HTBP mutant [2]; [5]
  Ki: 1.62 ± 0.57 µM

## RS 16566
A1B2D1R 5HTBP mutant [1]; [6]
  Ki: 3 ± 0.02 µM
A1B2D1R 5HTBP mutant [2]; [7]
  Ki: 0.38 ± 0.09 µM
